The structures appear in SMILES notation.

The experiment addresses T1, human TRPA1 (hTRPA1) (Homo sapiens, UniProt O75762).
T1 construct: wild-type hTRPA1 in HEK cells
The experiment in a line: Fura-2 Ca2+ imaging and whole-cell patch clamp in HEK-hTRPA1 cells; C621S and F669M mutants reduce response. In kind it is cell-based. (The patch-clamp technique gives a direct electrical read-out from membranes.)

T1 sequence (O75762 whole entry): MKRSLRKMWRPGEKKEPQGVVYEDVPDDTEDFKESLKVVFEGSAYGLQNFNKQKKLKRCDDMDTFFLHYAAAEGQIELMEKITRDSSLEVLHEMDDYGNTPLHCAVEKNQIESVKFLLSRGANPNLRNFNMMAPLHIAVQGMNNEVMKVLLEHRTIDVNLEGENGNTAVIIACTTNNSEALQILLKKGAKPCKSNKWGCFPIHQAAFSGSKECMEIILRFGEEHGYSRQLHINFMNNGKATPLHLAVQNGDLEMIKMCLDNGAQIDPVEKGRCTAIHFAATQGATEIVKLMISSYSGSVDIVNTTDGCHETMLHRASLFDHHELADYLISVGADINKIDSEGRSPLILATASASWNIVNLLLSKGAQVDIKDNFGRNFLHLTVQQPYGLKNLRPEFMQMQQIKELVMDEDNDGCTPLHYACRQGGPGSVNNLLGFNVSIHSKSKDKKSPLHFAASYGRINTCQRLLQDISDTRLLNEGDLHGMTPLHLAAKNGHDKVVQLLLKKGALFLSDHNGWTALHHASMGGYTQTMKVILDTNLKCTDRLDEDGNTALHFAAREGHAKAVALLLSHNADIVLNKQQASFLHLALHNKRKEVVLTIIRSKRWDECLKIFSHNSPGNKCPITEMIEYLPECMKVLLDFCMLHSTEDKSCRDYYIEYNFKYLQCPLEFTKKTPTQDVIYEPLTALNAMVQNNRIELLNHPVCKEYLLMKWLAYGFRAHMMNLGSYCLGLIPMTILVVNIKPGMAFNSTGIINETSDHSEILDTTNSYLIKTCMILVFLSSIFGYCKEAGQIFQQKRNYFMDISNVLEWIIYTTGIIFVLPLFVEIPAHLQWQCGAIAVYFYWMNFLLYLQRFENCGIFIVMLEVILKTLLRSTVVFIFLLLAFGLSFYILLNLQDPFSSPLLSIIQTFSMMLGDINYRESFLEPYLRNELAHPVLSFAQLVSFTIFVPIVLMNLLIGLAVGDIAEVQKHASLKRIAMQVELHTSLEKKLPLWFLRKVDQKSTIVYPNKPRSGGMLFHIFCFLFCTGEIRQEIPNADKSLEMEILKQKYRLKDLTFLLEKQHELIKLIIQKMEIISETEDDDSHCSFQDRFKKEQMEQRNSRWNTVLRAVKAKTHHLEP

In general, EC50 refers to the concentration giving half of the maximal effect. Low readings indicate higher potency in that assay, high ones lower potency in that assay. With `COCCCN(C(=O)CCl)c1nc(-c2ccc(OC)cc2)cs1` [JT010], the half-maximal effective concentration (EC50) was around 10 nM.

These data come from paper PMC9695908, “Potent Activation of Human but Not Mouse TRPA1 by JT010” (International Journal of Molecular Sciences, 2022).
